SMILES strings stand for the structures.

What all share (assay type): cell-based
For experiment [1], the system named is human lung fibroblasts HFL1. In words: Anti-fibrosis activity test: inhibition of proliferation of human lung fibroblasts HFL1 (CCK-8). To be noted: Homo sapiens, HFL1, 48 h, human lung fibroblasts HFL1, CCK-8, 48 hours. A digest of the protocol:
(§1)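 After one day of adherence at 37° C in 5% CO2, cells (seeded at 2×10^4 cells/mL) received the compounds for two days in triplicate. Inhibition of proliferation was quantified with CCK-8 at 450 nm, with IC50 calculated from IR = (1−Ai/Ao)×100%.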

A further experiment has as its system BHK-21 cells. Kind of experiment: Anti-fibrosis activity test: inhibition of BHK-21 cell proliferation (CCK-8). The note with it: Mesocricetus auratus, BHK-21, 48 h, CCK-8, 48 hours after administration. A digest of the protocol: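 Cells plated 2×10^4 cells/mL; 24 h attach; compound dilutions, triplicate, 48 h, 37° C/5% CO2; CCK-8 2 h; A450; IR = (1−Ai/Ao)×100%; IC50 by curve fit.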

Experiment [2] relates to cardiac fibroblast RAT-iCell-C002. In words: Anti-fibrosis activity test: inhibition of proliferation of cardiac fibroblast RAT-iCell-C002 (CCK-8). The note with it: Cardiac fibroblast, 48 h, cardiac fibroblast RAT-iCell-C002, CCK-8, 48 hours. The essentials: as §1
Experiment [3] has as its system human embryonic lung fibroblast IMR-90. Kind of experiment: Anti-fibrosis activity test: inhibition of proliferation of human embryonic lung fibroblast IMR-90 (CCK-8). To be noted: human embryonic lung fibroblast IMR-90, CCK-8, 48 hours. A digest of the protocol: as §1
Experiment [4] deals with human fibrosarcoma cells HT-1080. In words: Anti-fibrosis activity test: inhibition of proliferation of human fibrosarcoma cells HT-1080 (CCK-8). The note with it: Homo sapiens, HT-1080, 48 h, human fibrosarcoma cells HT-1080, CCK-8, 48 hours. The essentials: as §1
A further experiment relates to NF-κB. Kind of experiment: Immunological activity test: inhibition of NF-κB activity. The note with it: initial concentration of 30 μM; a/b isomers given as first/second symbol; read-out: IC50 (μM), inhibitory activity against NF-κB. The essentials:
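Each compound is tested at 30 μM for its ability to suppress NF-κB signalling. Parthenolide runs alongside as the positive control, and the data are then analysed to give IC50 values.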

Experiment [5] deals with mouse macrophages (RAW264.7). Kind of experiment: Lipopolysaccharide-induced NO secretion in macrophages (Griess). To be noted: Mus musculus, RAW264.7, 24 h, RAW264.7, LPS 1 μg/ml, a/b isomers given as first/second symbol, read-out: IC50 (μM), inhibition of lipopolysaccharide-induced NO secretion in macrophages. The essentials:
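LPS 1 μg/ml, 24 h, RAW264.7 (DMEM/10% FBS); cpds at varied concs. Supernatant NO by Griess, A548; % inhibition vs blank medium.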

For experiment [6], the system named is human dermal fibroblasts CCC-ESF-1. In words: Anti-fibrosis activity test: inhibition of proliferation of human dermal fibroblasts CCC-ESF-1 (CCK-8). To be noted: Fibroblast; human dermal fibroblasts CCC-ESF-1, CCK-8, 48 hours. The essentials: as §1
The test system of experiment [7] is human hepatic stellate cells LX-2. In words: Anti-fibrosis activity test: inhibition of proliferation of human hepatic stellate cells LX-2 (CCK-8). To be noted: Homo sapiens, 48 h, human hepatic stellate cells LX-2, CCK-8, 48 hours. The essentials: as §1

Take `O=C(O)COc1c2c(nc3ccc(C(F)(F)F)cc13)-c1cccn1C2=O` [Compound 279b, 2-((10-Oxo-7-(trifluoromethyl)-10H-pyrrolizino[1,2-b]quinolin-9-yl)oxy)acetic acid]: the IC50 in experiment [1] lay in the range of 0.05 to 5 mM; in the experiment with BHK-21 cells, 0.05 to 5 mM; in [2] it was 0.05 to 5 mM; in experiment [3], 0.05 to 5 mM; in experiment [4], 0.05 to 5 mM; in the experiment with NF-κB it was 1 to 10 µM. The IC50 is 0.1 to 1 µM in experiment [5], 0.05 to 5 mM in [6] and 0.05 to 5 mM in experiment [7].
For `O=C1c2c([nH]c3ccc(C(F)(F)F)cc3c2=O)-c2cccn21` [Compound 282a, 7-(Trifluoromethyl)-9H-pyrrolizino[1,2-b]quinoline-9,10(4H)-dione], the IC50 was in the range of 0.05 to 5 mM in experiment [1]; 0.05 to 5 mM with BHK-21 cells; 0.05 to 5 mM in [2]; 0.05 to 5 mM in experiment [3]; 0.05 to 5 mM in experiment [4]; 1 to 10 µM in the experiment with NF-κB. Also, the 50% inhibitory concentration (IC50) in experiment [5] lay within 1 to 10 µM; in experiment [6], 0.05 to 5 mM; in experiment [7], 0.05 to 5 mM.
On to `O=C1c2c(nc3ccc(C(F)(F)F)cc3c2O)-c2cccn21` [Compound 282b, 9-hydroxy-7-(trifluoromethyl)-10H-pyrrolizino[1,2-b]quinolin-10-one], for which the IC50 in experiment [1] is 0.05 to 5 mM; in the experiment on BHK-21 cells, 0.05 to 5 mM; in [2] it was 0.05 to 5 mM; in experiment [3] it was 0.05 to 5 mM; in experiment [4] it was 0.05 to 5 mM; with NF-κB, 1 to 10 µM. The IC50 in [5] is 10 to 50 µM; in experiment [6], 0.05 to 5 mM; in experiment [7] it was 0.05 to 5 mM.
Take `O=C1c2c([nH]c3ccc(OC(F)(F)F)cc3c2=O)-c2cccn21` [Compound 306a, 7-(Trifluoromethoxy)-9H-pyrrolizino[1,2-b]quinoline-9,10(4H)-dione]: the IC50 in experiment [1] was in the range of 0.05 to 5 mM; in the experiment with BHK-21 cells, 0.05 to 5 mM; in experiment [2], 0.05 to 5 mM; in experiment [3], 0.05 to 5 mM; in [4] it was 0.05 to 5 mM; in the experiment on NF-κB it was 1 to 10 µM. Besides, the values for the IC50 in experiment [5], in [6] and in [7] were 1 to 10 µM, 0.05 to 5 mM and 0.05 to 5 mM, respectively.
For the compound `O=C1c2c(nc3ccc(OC(F)(F)F)cc3c2O)-c2cccn21` [Compound 306b, 9-hydroxy-7-(trifluoromethoxy)-10H-pyrrolizino[1,2-b]quinolin-10-one], the IC50 lay in the range of 0.05 to 5 mM in experiment [1]; 0.05 to 5 mM in the experiment with BHK-21 cells; 0.05 to 5 mM in experiment [2]; 0.05 to 5 mM in [3]; 0.05 to 5 mM in experiment [4]; 1 to 10 µM in the experiment with NF-κB. Moreover, the IC50 in [5] was in the range of 0.1 to 1 µM; in experiment [6] it was 0.05 to 5 mM; in experiment [7], 0.05 to 5 mM.
Take `O=C1c2c([nH]c3cc(N4CCNCC4)ccc3c2=O)-c2cccn21` [Compound 319a, 6-(piperazin-1-yl)-9H-pyrrolizino[1,2-b]quinoline-9,10(4H)-dione]: the IC50 was 0.05 to 5 mM in [1]; 0.05 to 5 mM in the experiment on BHK-21 cells; 0.05 to 5 mM in experiment [2]; 0.05 to 5 mM in experiment [3]; 0.05 to 5 mM in experiment [4]; 1 to 10 µM in the experiment on NF-κB. For the same compound, the IC50 in [5] is 1 to 10 µM; in [6], less than 0.05 mM; in experiment [7], 0.05 to 5 mM.
Take `O=C1c2c(nc3cc(N4CCNCC4)ccc3c2O)-c2cccn21` [Compound 319b, 9-Hydroxy-6-(piperazin-1-yl)-10H-pyrrolizino[1,2-b]quinolin-10-one]: the IC50 in experiment [1] was 0.05 to 5 mM; in the experiment on BHK-21 cells, 0.05 to 5 mM; in experiment [2], 0.05 to 5 mM; in experiment [3], 0.05 to 5 mM; in experiment [4], 0.05 to 5 mM; with NF-κB, 1 to 10 µM. Further, the IC50 is 1 to 10 µM in experiment [5], less than 0.05 mM in experiment [6] and 0.05 to 5 mM in experiment [7].
With `Cn1c2c(c(=O)c3ccc(N4CCNCC4)cc31)C(=O)n1cccc1-2` [Compound 328a, 4-Methyl-6-(piperazin-1-yl)-9H-pyrrolizino[1,2-b]quinoline-9,10(4H)-dione], the IC50 in [1] was 0.05 to 5 mM; with BHK-21 cells, less than 0.05 mM; in experiment [2] it was 0.05 to 5 mM; in experiment [3] it was 0.05 to 5 mM; in experiment [4], 0.05 to 5 mM; with NF-κB, 0.1 to 1 µM. Moreover, the IC50 was 1 to 10 µM in experiment [5], 0.05 to 5 mM in [6] and 0.05 to 5 mM in experiment [7].
As to `COc1c2c(nc3cc(N4CCNCC4)ccc13)-c1cccn1C2=O` [Compound 328b, 9-methoxy-6-(piperazin-1-yl)-10H-pyrrolizino[1,2-b]quinolin-10-one], the IC50 in [1] lay in the range of 0.05 to 5 mM; in the experiment on BHK-21 cells, 0.05 to 5 mM; in experiment [2], 0.05 to 5 mM; in experiment [3] it was 0.05 to 5 mM; in experiment [4], 0.05 to 5 mM; in the experiment with NF-κB, 1 to 10 µM. Besides, the IC50 was in the range of 1 to 10 µM in experiment [5], 0.05 to 5 mM in experiment [6] and 0.05 to 5 mM in experiment [7].
Regarding `O=C1c2c([nH]c3c(Cl)cccc3c2=O)-c2cccn21` [Compound 443a, 5-Chloro-9H-pyrrolizino[1,2-b]quinoline-9,10(4H)-dione], the IC50 in experiment [1] was in the range of 0.05 to 5 mM; in the experiment on BHK-21 cells it was 0.05 to 5 mM; in [2], 0.05 to 5 mM; in experiment [3], 0.05 to 5 mM; in experiment [4] it was 0.05 to 5 mM; in the experiment on NF-κB, 1 to 10 µM. The concentration for half-maximal inhibition (IC50) in experiment [5] was 1 to 10 µM; in experiment [6], 0.05 to 5 mM; in [7], 0.05 to 5 mM.
With `O=C1c2c(nc3c(Cl)cccc3c2O)-c2cccn21` [Compound 443b, 5-chloro-9-hydroxy-10H-pyrrolizino[1,2-b]quinolin-10-one], the IC50 in experiment [1] is 0.05 to 5 mM; in the experiment with BHK-21 cells, 0.05 to 5 mM; in experiment [2], 0.05 to 5 mM; in experiment [3], 0.05 to 5 mM; in experiment [4], 0.05 to 5 mM; with NF-κB, 1 to 10 µM. The IC50 in [5] was in the range of 1 to 10 µM; in [6] it was 0.05 to 5 mM; in experiment [7], 0.05 to 5 mM.
For the compound `O=C1c2c([nH]c3c(F)cccc3c2=O)-c2cccn21` [Compound 444a, 5-Fluoro-9H-pyrrolizino[1,2-b]quinoline-9,10(4H)-dione], the IC50 in [1] lay within 0.05 to 5 mM; in the experiment on BHK-21 cells it was 0.05 to 5 mM; in experiment [2], 0.05 to 5 mM; in experiment [3], 0.05 to 5 mM; in [4], 0.05 to 5 mM; with NF-κB, 1 to 10 µM. The IC50 in [5] was in the range of 0.1 to 1 µM; in experiment [6], 0.05 to 5 mM; in [7], 0.05 to 5 mM.
Take `O=C1c2c(nc3c(F)cccc3c2O)-c2cccn21` [Compound 444b, 5-fluoro-9-hydroxy-10H-pyrrolizino[1,2-b]quinolin-10-one]: the IC50 was in the range of 0.05 to 5 mM in experiment [1]; 0.05 to 5 mM in the experiment on BHK-21 cells; 0.05 to 5 mM in [2]; 0.05 to 5 mM in experiment [3]; 0.05 to 5 mM in experiment [4]; 1 to 10 µM in the experiment with NF-κB. Also, the IC50 in experiment [5] was 1 to 10 µM; in experiment [6], 0.05 to 5 mM; in experiment [7] it was 0.05 to 5 mM.
Regarding `O=C1c2c([nH]c3c(O)cccc3c2=O)-c2cccn21` [Compound 445a, 5-Hydroxy-9H-pyrrolizino[1,2-b]quinoline-9,10(4H)-dione], the IC50 in [1] was 0.05 to 5 mM; with BHK-21 cells it was 0.05 to 5 mM; in [2], 0.05 to 5 mM; in experiment [3] it was 0.05 to 5 mM; in [4] it was 0.05 to 5 mM; in the experiment on NF-κB, 1 to 10 µM. In addition, the IC50 in experiment [5] was in the range of 1 to 10 µM; in experiment [6], 0.05 to 5 mM; in [7], 0.05 to 5 mM.

For the origin of these results see US11040028B2, “Penicinotam derivative, preparation method and use thereof” (OCEAN UNIVERSITY OF CHINA, priority 2017, dated 2021).
